Results as given in patent publication US5571804A, “Cephalosporin antibiotics” (priority 1993, dated 1996).

What was measured:
Assay in all cases: MIC, two-fold agar dilution
Assay type in all cases: cell-based
Conditions in all cases: Muller-Hinton agar, 37° C., 20 hours
[1] = test system: Staphylococcus aureus 6538P
[2] = test system: Staphylococcus aureus giorgio
[3] = test system: Staphylococcus aureus 77
[4] = test system: Staphylococcus aureus 241
[5] = test system: Streptococcus laecalis 29212A
[6] = test system: E. coli 10536
[7] = test system: E. coli 3190Y
[8] = test system: E. coli 851E
[9] = test system: E. coli TEM1 1193E
[10] = test system: E. coli TEM3 3455E
[11] = test system: E. coli TEM5 3739E
[12] = test system: E. coli TEM7 3457E
[13] = test system: E. coli TEM9 2639E
[14] = test system: Pseudomonas aeruginosa 1912E
[15] = test system: Pseudomonas aeruginosa 10145
[16] = test system: Pseudomonas aeruginosa 6065
[17] = test system: Acinetobacter calcoaceticus 15473A
[18] = test system: Citrobacter diversus 2046E
[19] = test system: Enterobacter cloacae IND + VE 1194E
[20] = test system: Enterobacter cloacae P99
[21] = test system: Klebsiella aerogenes SHV-1 1976E
[22] = test system: Klebsiella aerogenes K1 + 1082E
[23] = test system: Proteus vularis 6059A
[24] = test system: Serratia marcescens 1826E
[25] = test system: Salmonella typhimurium 14028A

Structure (SMILES) | minimal inhibitory concentration (MIC) [1] | minimal inhibitory concentration (MIC) [2] | minimal inhibitory concentration (MIC) [3] | minimal inhibitory concentration (MIC) [4] | minimal inhibitory concentration (MIC) [5] | minimal inhibitory concentration (MIC) [6] | minimal inhibitory concentration (MIC) [7] | minimal inhibitory concentration (MIC) [8] | minimal inhibitory concentration (MIC) [9] | minimal inhibitory concentration (MIC) [10] | minimal inhibitory concentration (MIC) [11] | minimal inhibitory concentration (MIC) [12] | minimal inhibitory concentration (MIC) [13] | minimal inhibitory concentration (MIC) [15] | minimal inhibitory concentration (MIC) [16] | minimal inhibitory concentration (MIC) [17] | minimal inhibitory concentration (MIC) [18] | minimal inhibitory concentration (MIC) [19] | minimal inhibitory concentration (MIC) [20] | minimal inhibitory concentration (MIC) [21] | further results
Nc1cc(N)nc(SCC2=C(C(=O)O)N3C(=O)[C@@H](NC(=O)/C(=N\O[C@@H](C(=O)O)c4ccc(O)c(O)c4)c4csc(N)n4)[C@H]3SC2)n1 [Compound I-1R, 7-[(Z)-2-(aminothiazol-4-yl)-2-(α-carboxy-3,4-dihydroxybenzyloxyimino)acetamido]-3-(4,6-diamino-pyrimidine-2-yl) thiomethyl-3-cephem-4-carboxylate] | 2 | 1 | 32 | 128 | 16 | 0.063 | 0.13 | 0.13 | 0.25 | 0.25 | 0.25 | 0.063 | 0.5 | 2 | 8 | 1 | 1 | 32 | 32 | 0.5 | minimal inhibitory concentration (MIC) [14]: 1; minimal inhibitory concentration (MIC) [22]: 0.5; minimal inhibitory concentration (MIC) [23]: 0.5; minimal inhibitory concentration (MIC) [24]: 2; minimal inhibitory concentration (MIC) [25]: 0.13
Cc1c(N)nc(SCC2=C(C(=O)O)N3C(=O)[C@@H](NC(=O)/C(=N\O[C@@H](C(=O)O)c4ccc(O)c(O)c4)c4csc(N)n4)[C@H]3SC2)nc1N [Compound I-2R, 7-[(Z)-2-(aminothiazol-4-yl)-2-(α-carboxyl-3,4-dihydroxybenzyloxyimino)acetamido]-3-(4,6-diamino-5-methylpyrimidine-2-yl)thiomethyl-3-cephem-4-carboxylate] | 2 | 1 | 32 | 128 | 32 | 0.063 | 0.13 | 0.13 | 0.5 | 0.25 | 0.25 | 0.016 | 0.5 | 2 | 8 | 1 | 2 | 32 | 32 | 0.5 | minimal inhibitory concentration (MIC) [22]: 1; minimal inhibitory concentration (MIC) [23]: 0.5; minimal inhibitory concentration (MIC) [24]: 2; minimal inhibitory concentration (MIC) [25]: 0.25
Nc1ccnc(SCC2=C(C(=O)O)N3C(=O)[C@@H](NC(=O)/C(=N\O[C@@H](C(=O)O)c4ccc(O)c(O)c4)c4csc(N)n4)[C@H]3SC2)n1 [Compound I-3R, 7-[(Z)-2-(aminothiazol-4-yl)-2-(α-carboxyl-3,4-dihydroxybenzyloxyimino)acetamido]-3-(4-amino-pyrimidine-2-yl) thiomethyl-3-cephem-4-carboxylate] | 2 | 2 | 16 | 128 | 32 | 0.031 | 0.13 | 0.13 | 0.5 | 0.25 | 0.25 | 0.016 | 0.5 | 2 | 8 | 1 | 2 | 32 | 16 | 1 | minimal inhibitory concentration (MIC) [14]: 1; minimal inhibitory concentration (MIC) [22]: 0.5; minimal inhibitory concentration (MIC) [23]: 0.5; minimal inhibitory concentration (MIC) [24]: 2
Nc1nc(/C(=N/O[C@@H](C(=O)O)c2ccc(O)c(O)c2)C(=O)N[C@@H]2C(=O)N3C(C(=O)O)=C(CSc4nc(N)c(N)c(N)n4)CS[C@H]23)cs1 [Compound I-5R, 7-[(Z)-2-(aminothiazol-4-yl)-2-(α-carboxy-3,4-dihydroxybenzyloxyimino)acetamido]-3-(4,5,6-triaminopyrimidine-2-yl)thiomethyl-3-cephem-4-carboxylate] | 2 | 1 | 32 | 128 | 16 | 0.063 | 0.063 | 0.13 | 0.25 | 0.25 | 0.25 | 0.063 | 0.5 | 2 | 8 | 1 | 1 | 32 | 32 | 0.25 | minimal inhibitory concentration (MIC) [14]: 1; minimal inhibitory concentration (MIC) [22]: 0.5; minimal inhibitory concentration (MIC) [23]: 0.5; minimal inhibitory concentration (MIC) [24]: 2; minimal inhibitory concentration (MIC) [25]: 0.13
